Patent US7569578B2, “Heterocyclic anti-migraine agents” (Bristol-Meyers Squibb Company, priority 2003, dated 2009)
Like-named read-outs stand apart in the source and are kept apart here.

Target: T1, Human CGRP1 Receptor (Homo sapiens, UniProt O60894+Q16602)
T1 construct: endogenous in cells; host or cells: SK-N-MC cells (membrane homogenate)
Experiment: CGRP Binding Assay ([125I]-CGRP radioligand displacement, SK-N-MC membrane homogenate)

[1] = [125I]-CGRP displacement, SK-N-MC homogenate, room temperature 2 h, read-out: Human CGRP1 Receptor IC50

T1 sequence (Q16602 23-461): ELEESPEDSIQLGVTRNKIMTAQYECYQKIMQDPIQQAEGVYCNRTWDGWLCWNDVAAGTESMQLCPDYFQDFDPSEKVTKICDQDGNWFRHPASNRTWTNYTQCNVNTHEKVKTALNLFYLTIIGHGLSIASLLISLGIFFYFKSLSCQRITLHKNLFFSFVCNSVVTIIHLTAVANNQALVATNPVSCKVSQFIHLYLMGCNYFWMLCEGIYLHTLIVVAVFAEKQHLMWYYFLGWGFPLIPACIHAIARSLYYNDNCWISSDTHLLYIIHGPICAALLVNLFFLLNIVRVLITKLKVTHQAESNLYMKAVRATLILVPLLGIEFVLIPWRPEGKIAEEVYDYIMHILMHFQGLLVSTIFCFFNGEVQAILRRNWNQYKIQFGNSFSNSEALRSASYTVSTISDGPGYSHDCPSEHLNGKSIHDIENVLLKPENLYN
T1 sequence (O60894 27-148): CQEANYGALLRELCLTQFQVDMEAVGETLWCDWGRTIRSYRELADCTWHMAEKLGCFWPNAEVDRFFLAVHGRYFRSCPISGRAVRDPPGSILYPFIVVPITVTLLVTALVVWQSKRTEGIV

| SMILES | IC50 [1] | IC50 |
| --- | --- | --- |
| Cc1cc(C[C@@H](OC(=O)N2CCC(c3cc4ccccc4[nH]c3=O)CC2)c2nccn2Cc2cc(F)cc(F)c2)cc2cn[nH]c12 [Example 78, (R)-1-(1-(3,5-difluorobenzyl)-1H-imidazol-2-yl)-2-(7-methyl-1H-indazol-5-yl)ethyl 4-(2-oxo-1,2-dihydroquinolin-3-yl)piperidine-1-carboxylate] | < 10 nM |  |
| Cc1cc(CC(NC(=O)N2CCC(N3Cc4ccccc4NC3=O)CC2)c2nccn2Cc2cccc(F)c2)cc2cn[nH]c12 (racemic) [Example 68, (±)-N-(1-(1-(3-Fluorobenzyl)-1H-imidazol-2-yl)-2-(7-methyl-1H-indazol-5-yl)ethyl)-4-(2-oxo-1,2-dihydroquinazolin-3(4H)-yl)piperidine-1-carboxamide] | < 10 nM |  |
| Cc1cc(CC(NC(=O)N2CCC(N3Cc4ccccc4NC3=O)CC2)c2nccn2Cc2ccccc2)cc2cn[nH]c12 (racemic) [Example 67, (±)-N-(1-(1-Benzyl-1H-imidazol-2-yl)-2-(7-methyl-1H-indazol-5-yl)ethyl)-4-(2-oxo-1,2-dihydroquinazolin-3(4H)-yl)piperidine-1-carboxamide] |  | < 10 nM |
| Cc1cc(CC(NC(=O)N2CCC(N3Cc4ccccc4NC3=O)CC2)c2nccn2Cc2ccccn2)cc2cn[nH]c12 (racemic) [Example 92, (±)-N-(2-(7-Methyl-1H-indazol-5-yl)-1-(1-(pyridin-2-ylmethyl)-1H-imidazol-2-yl)ethyl)-4-(2-oxo-1,2-dihydroquinazolin-3(4H)-yl)piperidine-1-carboxamide] | < 10 nM |  |
| Cc1cc(CC(NC(=O)N2CCC(N3Cc4ccccc4NC3=O)CC2)c2nccn2Cc2ccccc2F)cc2cn[nH]c12 (racemic) [Example 71, (±)-N-(1-(1-(2-Fluorobenzyl)-1H-imidazol-2-yl)-2-(7-methyl-1H-indazol-5-yl)ethyl)-4-(2-oxo-1,2-dihydroquinazolin-3(4H)-yl)piperidine-1-carboxamide] | < 10 nM |  |
| Cc1cc(CC(NC(=O)N2CCC(N3Cc4ccccc4NC3=O)CC2)c2nccn2Cc2ccc(C(C)(C)C)cc2)cc2cn[nH]c12 (racemic) [Example 75, (±)-N-(1-(1-(4-tert-Butylbenzyl)-1H-imidazol-2-yl)-2-(7-methyl-1H-indazol-5-yl)ethyl)-4-(2-oxo-1,2-dihydroquinazolin-3(4H)-yl)piperidine-1-carboxamide] | < 10 nM |  |
